Results published in patent US20190259469A1, “Method for Evaluating Genotoxicity of Substance” (priority 2017, published 2019).
Like-named read-outs stand apart in the source and are kept apart here.

Legend:
Salmonella TA100 strain [1] = assay: Mutation analysis by high-throughput sequencing of total DNA of TA100 strain exposed to mutagen; format: cell-based, S. typhimurium
Protocol: (§1) In this Example, the genotoxicity of a mutagen was analyzed by qualitatively and quantitatively analyzing mutation patterns in the genome of an organism exposed to the mutagen according to the analysis method of the present invention. The mutagen used was ethylnitrosourea (ENU, CAS No. 759-73-9). A Salmonella TA100 strain which is available for detection of a base pair substitution mutation and is routinely used in the Ames test was used as the organism to be exposed to the mutagen. The experiment was conducted in 3 independent operations to prepare samples (n=3).
(§2) The exposure to the mutagen was carried out in conformity to the preincubation method of the Ames test (K. Mortelmans et al., Mutat. Res. —Fundam. Mol. Mech. Mutagen., 2000, 455, 29-60). TA100 strain was inoculated to 2 mL of Nutrient Broth No. 2 (manufactured by Oxoid Ltd.) and shake-cultured at 37° C. at 180 rpm for 4 hours to obtain a preculture solution having an O.D. 660 value of 1.0 or more. ENU (54%; manufactured by Sigma-Aldrich Co. LLC) was diluted with dimethyl sulfoxide (DMSO; manufactured by Wako Pure Chemical Industries, Ltd.). One hundred μL of the ENU solution diluted into an appropriate concentration, 500 μL of a 0.1 M phosphate buffer, and 100 μL of the preculture solution were added into a test tube (ENU concentration: 67.5, 135, 270, 405, 540, 810, and 1080 μg/tube), and shake-cultured at 100 rpm for 20 minutes in a water bath of 37° C. For a control group, 100 μL of a solvent (DMSO) was added instead of the ENU solution. After the shake culture for 20 minutes, the test tube containing the culture solution was taken out of the water bath. Fifty μL of the culture solution was added to 2 mL of a nutrient broth solution dispensed in advance, and additionally cultured at 37° C. at 180 rpm for 14 hours. Then, 1 mL of the bacterial suspension was recovered and centrifuged at 7,500 rpm for 5 minutes. The supernatant was removed to recover bacterial cells.
From the bacterial cells obtained in the paragraph 1., total DNA was recovered using DNeasy Blood & Tissue Kit (manufactured by Qiagen N.V.) according to the recommended protocol.
The total DNA solutions recovered in the paragraph 2. from the control group and the ENU treatment groups were sequenced using a next-generation sequencer HiSeq 2500 (manufactured by Illumina, Inc.) according to the standard protocol. In this operation, DNA was fragmented into an average length of approximately […] by ultrasonic treatment. Adaptors were added to both ends of each fragment. The fragments were sequenced at a read length of 2×125 bp. 5.0-Gbp nucleotide sequence information per sample was obtained on average.
The editing of read sequences obtained by the sequencing and mutation analysis were conducted using Cutadapt software, PEAR software, Bowtie 2 software, Samtools software, and a program created using a programming language Python according to the conceptual diagram of analysis flow shown in Schematic diagram 2 in the same way as in Example 1. In this Example, PCR duplicates were removed using Picard tools (broadinstitute.github.io/picard/) after mapping using the Bowtie 2 software.
A reference sequence for the mapping using the Bowtie 2 software was constructed on the basis of the genomic sequence of the S. typhimurium TA100 strain. First, DNA was extracted from the TA100 strain and sequenced using a next-generation sequencer HiSeq 2500 (manufactured by Illumina, Inc.) according to the standard protocol. In this operation, the DNA was fragmented into an average length of approximately 300 bp by ultrasonic treatment. Adaptors were added to both ends of each fragment. The fragments were sequenced at a read length of 2×125 bp. The obtained read sequences were mapped to the genomic sequence of a S. typhimurium LT-2 strain, a pSLT plasmid sequence (GCA000006945.2), and a R46 plasmid sequence (NC_003292.1), followed by mutation detection using Samtools software. […]

Salmonella TA100 strain [2] = format: cell-based, S. typhimurium; conditions: for The number of revertants: mean and standard deviation of 3 plates
Protocol: as §1, §2
For the Ames test, a bacterial suspension exposed to ENU under the same conditions as above was also prepared. Two mL of top agar (containing 1% NaCl, 1% agar, 0.05 mM histidine and 0.05 mM biotin) warmed to 45° C. was added thereto, and the bacterial cells were suspended by vortex. Then, the suspension was layered over a minimal glucose agar medium (Tesmedia (Registered trademark) AN; manufactured by Oriental Yeast Co., Ltd.). The obtained plate was cultured at 37° C. for 48 hours. Then, observed colonies were counted.
The data was indicated by a mean and standard deviation of measurement values from 3 plates.

[3] = ENU 540 μg/tube, control subtracted

## CCN(N=O)C(N)=O [ENU, ethylnitrosourea]
Salmonella TA100 strain [1]; 3-base context, FIG. 7 and FIG. 8
  Increased mutation frequencies by sequence context analysis (96 mutation types), C>T mutation: larger increase in mutation frequency was found in a context with a pyrimidine base (C or T) located at 3′ side to the C
Salmonella TA100 strain [1]; [3]
  Ratio of AT > CG mutation pattern to the whole of increased mutation frequencies (mutation spectrum): 2.36%
  Ratio of AT > GC mutation pattern to the whole of increased mutation frequencies (mutation spectrum): 12.4%
  Ratio of AT > TA mutation pattern to the whole of increased mutation frequencies (mutation spectrum): 11.5%
  Ratio of GC > AT mutation pattern to the whole of increased mutation frequencies (mutation spectrum): 73.7%
Salmonella TA100 strain [1]; ENU 135, 270, 405 and 540 μg/tube, FIG. 4A
  Increased mutation frequencies of GC base pair mutation patterns: increase in the frequency of GC>AT mutation was found
Salmonella TA100 strain [1]; ENU 135, 270, 405 and 540 μg/tube, FIG. 4B
  Increased mutation frequencies of AT base pair mutation patterns: increase in the frequencies of AT>TA and AT>GC mutations was mainly found
Salmonella TA100 strain [2]; ENU 67.5 μg/plate
  The number of revertants: 258 ± 2.5
Salmonella TA100 strain [2]; ENU 135 μg/plate
  The number of revertants: 659 ± 113.9
Salmonella TA100 strain [2]; ENU 270 μg/plate
  The number of revertants: 3320 ± 734.4
Salmonella TA100 strain [2]; ENU 405 μg/plate
  The number of revertants: 4994 ± 455.6
Salmonella TA100 strain [2]; ENU 540 μg/plate
  The number of revertants: 5051 ± 173.0
Salmonella TA100 strain [2]; ENU 810 μg/plate, growth inhibition on plate
  The number of revertants: 3102 ± 883.0
Salmonella TA100 strain [2]; ENU 1080 μg/plate, growth inhibition on plate
  The number of revertants: 503 ± 190.9
Salmonella TA100 strain [2]; ENU 67.5 to 1080 μg/plate against DMSO
  Change in the number of revertants by exposure: Increase in the number of revertants was found
